Laboratory results: patent US20210309961A1, “METHOD OF THREE-DIMENSIONAL MICROORGANISMS BIOFILMS FABRICATION” (VIVAX BIO, LLC, priority 2020, published 2021)

Test system: E. coli ATCC 43890
Experiment: Survivability of E. coli ATCC 43890 in presence of gadobutrol (cfu count by plating decimal dilutions)
Type: cell-based, Escherichia coli
Procedure: A. (1) E. coli culture ATCC 43890 grown on LB broth during the night, (2) bacteria culture grown on LB broth and incubated with 0,2 M of gadobutrol in magnetic bioprinter for 24 hours, and (3) bacteria culture cultivated in paramagnetic substrate containing 0,2 M of gadobutrol in magnetic bioprinter for 24 hours; bacteria were sown in decimal dilution; diagram is showing concentrations calculated in three independent experiments.
The E. coli ATCC 43890 (cultured in different conditions) concentrations were estimated for analysis of survivability of bacteria in presence of gadobutrol. Primary culture has shown concentrations of 2.3×10^9, 2.1×10^9 and 1.9×10^8 cfu/ml for fresh night culture grown in LB broth during the night (1), for culture grown in LB broth during the night and then incubated with 0.2M gadobutrol in the bioprinter for next 24 hours (2), and culture grown under magnetic levitation in the paramagnetic nutrient medium (3) respectively (FIG. 4A). […] Moreover, the results have shown that the bacteria proliferated in the paramagnetic culture medium, that was observed due to the increase in concentration during cultivation: the initial bacteria (diluted in fresh paramagnetic medium) concentration was 2.3×10^7 cfu/ml ( 1/100 from the fresh night culture) and final concentration was 1.9×10^8 cfu/ml.

## O=C([O-])CN1CCN(CC(=O)[O-])CCN(C(CO)C(O)CO)CCN(CC(=O)[O-])CC1.[Gd+3] (stereo not drawn) [gadobutrol, [10-[2,3-dihydroxy-1-(hydroxymethyl)propyl]-1,4,7,10-tetraazacyclododecane-1,4,7-triaceto(3-)-N^1,N^4,N^7,N^10,O^1,O^4,O^7]gadolinium]
0.2M gadobutrol
  survivability of bacteria after incubation: bacteria saved their survivability
Culture grown in LB broth during the night, then incubated with 0.2M gadobutrol in the bioprinter for next 24 hours
  bacteria concentration: 2.1×10^9 cfu/ml
Culture grown under magnetic levitation in paramagnetic nutrient medium (0.2 M gadobutrol) for 24 hours, initial concentration 2.3×10^7 cfu/ml
  bacteria concentration: 1.9×10^8 cfu/ml
